In patent US20220227720A1, “DHODH INHIBITORS AND THEIR USE AS ANTIVIRAL AGENTS” (priority 2019, published 2022):
Values after ≈ are worked out from the molar mass of the structure shown. Read-outs that look alike come from different tables or passages of the source.

Legend:
TOSV = experiment: microbe, parasite or virus in culture; format: cell-based, Toscana virus; conditions: Toscana virus, Vero C1008, read-out: IC50 (TOSV)
[1] = Hepatic microsome stability; conditions: 1 μm, 37° C., 0.5 mg/mL microsomes of mouse liver; cofactor: NADPH
RVFV [2] = experiment: microbe, parasite or virus in culture; format: cell-based; conditions: Rift Valley fever virus, Vero C1008, read-out: IC50 RVFV
TBEV [3] = experiment: microbe, parasite or virus in culture; format: cell-based; conditions: Tick-borne encephalitis virus, Vero C1008, read-out: IC50 TBEV
VEEV [4] = experiment: microbe, parasite or virus in culture; format: cell-based; conditions: Venezuelan equine encephalitis virus, SW13, read-out: IC50 VEEV
BHK-21 = experiment: Cytotoxicity assay, BHK-21 cells; conditions: Hamster BHK-21 cells; value repeated under each virus
[5] = Cytotoxicity assay, BHK-21 cells; conditions: hamster, BHK-21 cells, CC50, Hamster BHK-21 cells; value repeated under each virus
RVFV [6] = experiment: microbe, parasite or virus in culture; format: cell-based; conditions: Rift Valley fever virus, SW13, read-out: IC50 RVFV
Solubility in PBS pH 7.4 = conditions: PBS pH 7.4, 20 °C, pH 7.4, aqueous buffer
DENV = experiment: Virus yield reduction assay, DENV in Vero E6 cells; format: cell-based; conditions: Dengue virus, Vero C1008; Simian Vero E6 cells; FLAVI virus family
VEEV [7] = experiment: microbe, parasite or virus in culture; format: cell-based; conditions: Venezuelan equine encephalitis virus, HEK293, read-out: IC50 VEEV
RVFV [8] = experiment: microbe, parasite or virus in culture; format: cell-based; conditions: Rift Valley fever virus, HEK293, read-out: IC50 RVFV
YFV [9] = experiment: microbe, parasite or virus in culture; format: cell-based; conditions: Yellow fever virus, Vero C1008, read-out: IC50 YFV
TBEV [10] = experiment: microbe, parasite or virus in culture; format: cell-based; conditions: Tick-borne encephalitis virus, SW13, read-out: IC50 TBEV
TBEV [11] = experiment: microbe, parasite or virus in culture; format: cell-based; conditions: Tick-borne encephalitis virus, HEK293, read-out: IC50 TBEV
[12] = Cytotoxicity assay, SW13 cells; conditions: human
ZIKV = experiment: Virus yield reduction assay, ZIKV in Vero E6 cells; format: cell-based; conditions: Zika virus, Vero C1008; Simian Vero E6 cells; FLAVI virus family
HAZV = experiment: microbe, parasite or virus in culture; format: cell-based; conditions: Hazara virus, Vero C1008, read-out: IC50 HAZV
Plasma stability = conditions: 1 μm, 37° C., mouse plasma diluted with 1 volume of PBS pH 7.4
RVFV [13] = experiment: microbe, parasite or virus in culture; format: cell-based; conditions: Rift Valley fever virus, BHK-21, in Mesocricetus auratus, read-out: IC50 RVFV
[14] = Cytotoxicity assay (CellTiter-Blue), Vero E6 cells; conditions: monkey (simian), Vero E6 cells, CC50, Simian Vero E6 cells; value repeated under each virus
VEEV [15] = experiment: microbe, parasite or virus in culture; format: cell-based; conditions: Venezuelan equine encephalitis virus, Vero C1008, read-out: IC50 VEEV
YFV [16] = experiment: microbe, parasite or virus in culture; format: cell-based; conditions: Yellow fever virus, BHK-21, in Mesocricetus auratus, read-out: IC50 YFV

SMILES: CCCCCc1ccc(C#Cc2ccc(NC(=O)C(C)C)c(C(=O)O)c2)cc1 [Example 9, 2-Isobutyramido-5-((4-pentylphenyl)ethynyl)benzoic acid]
- IC50 (TOSV): 10 nM
- Hepatic microsome stability [% remaining at 1 h] [1]: 45 ± 8 % remaining at 1 h
- IC50 (RVFV [2]): 10 nM
- IC50 (TBEV [3]): 11.7 nM
- IC50 (VEEV [4]): 14 nM
- CC50 (BHK-21): 55000 nM
- CC50 [5]: 50000 nM
- IC50 (RVFV [6]): 11 nM
- solubility (Solubility in PBS pH 7.4): 13 ± 6 µM (≈ 4.91 µg/mL)
- IC50 (DENV): 23 nM
- IC50 (VEEV [7]): 1.5 nM
- IC50 (RVFV [8]): < 1.6 nM
- IC50 (YFV [9]): 16 nM
- IC50 (TBEV [10]): 14 nM
- IC50 (TBEV [11]): 4.4 nM
- CC50 [12]: 17000 nM
- IC50 (ZIKV): 23 nM
- IC50 (HAZV): 12 nM
- Plasma stability [% remaining at 2 h] (Plasma stability): 98 ± 3 % remaining at 2 h
- IC50 (RVFV [13]): 43 nM
- CC50 at 4 days [14]: 4000 nM
- IC50 (VEEV [15]): 10.7 nM
- IC50 (YFV [16]): 55 nM
